{"source": "paper PMC6272637", "about": "“Hepatoprotective Triterpene Saponins from the Roots of Glycyrrhiza inflata” (Molecules, 2015)", "key": {"phospholipase A2 (PLA2)": {"biological_target": "phospholipase A2 (PLA2)", "test": "Assay for inhibition against PLA2", "assay_type": "biochemical", "details": "PLA2 enzyme 5 μg/mL, pH 8.2, 40 °C, 30 min, OD 495 nm; three repeats", "protocol": "As a regulator associated with the stability of the liver cell membrane, phospholipase A2 (PLA2) is a promising target for hepatoprotective drug development.\nThe PLA2 inhibitory assays of compounds 1–11 and the positive drug diethylenetriaminepentaacetic acid (Purchased from Aladdin, Los Angeles, CA, USA, purity > 98.0%) were carried out according to the literature. First of all, each tube was added with 1 mL fresh substrate buffer solution (pH = 8.2). After that, 50 μL tested compounds at various concentrations were placed at reaction tube and blank tube, respectively. As for control tube, 50 μL deionized water was instead. Then each tube incubated at 40 °C for 10 minutes. The reaction tube and blank tube were followed by the treatment with PLA2 enzyme (5 μL) at the concentration of 5 μg/mL. Before put them into the incubator at the temperature of 40 °C to react 30 minutes, the content of the tube should be fully blending. The optical density value of each tube was then read in an ELISA plate reader using a wavelength of 495 nm. The IC50 values were calculated from concentration-response curves by means of the GraphPad Prism 5.0 Software (San Diego, CA, USA). Each experiment was repeated three times to get the mean values."}, "[1]": {"system": "primary rat hepatocytes injured by D-GalN", "test": "Hepatoprotective activity in primary rat hepatocytes injured by D-GalN (AST, LDH levels)", "assay_type": "cell-based", "details": "for AST / LDH: primary rat hepatocytes, 2 mM D-GalN, mean ± SD, n = 3; for AST: model 17.1 ± 2.4, control 6.9 ± 1.7; for LDH: model 253.5 ± 13.5, control 157.4 ± 11.7; for hepatoprotective activity (result in words): primary rat hepatocytes injured by D-GalN, compared to model group or between compounds", "protocol": "All the separated compounds were assessed for their hepatoprotective activities against the increase of AST and LDH levels in primary rat hepatocytes injured by D-GalN. The maximum nontoxic concentrations of tested compounds on primary rat hepatocytes were in the range of 120–240 μM. […] (Table 2).\nIsolated rat hepatocytes were prepared from male Wistar rats by a collagenase perfusion technique as described previously. The D-GalN concentration used for cell culture treatment was previously determined according to a modification of the method of Morikawa et al.. The cultured cells in logarithmic growth phase were made into a single-cell suspension and seeded in 96-well plates (1 × 10^4 cells/well) in the DMEM/F 12 with 2% FBS complete medium for 24 h at 37 °C. Then, the hepatocytes were exposed to 2 mM D-GalN for 2 h to induce hepatotoxocity. The medium with silibin meglumine (as positive drug, purity 95.6%, Hunan Xieli Pharmaceutical Co., Ltd., Zhuzhou, China) and different concentrations of test compounds was mixed in cell medium (final test compounds concentration were 30 μM, 60 μM and 120 μM, respectively), and incubated for 24 h. The obtained reacted supernatant was directly used to detect ALT and AST levels. The control group was a set of cells maintained in culture medium, while the model group was a set of cells maintained in culture medium and treated only with D-GalN. All data are expressed as the mean ± SD of at least three independent experiments as indicated. The test for the paired samples was used to determine statistical difference between parameters. These differences were considered significant for p < 0.05 or 0.01."}}, "note": "Entries after “also recorded” stand apart in the source; their conditions may differ. Marks after values point to notes of the source that are not given here.", "data": [{"smiles": "CC12CCC(CO)(C(=O)O)CC1C1=CC(=O)C3C4(C)CCC(OC5OC(C(=O)O)C(O)C(O)C5OC5OC(C(=O)O)C(O)C(O)C5O)C(C)(C)C4CCC3(C)C1(C)CC2", "note": "[Compound 1, 3β-O-[β-D-glucuronopyranosyl-(1→2)-β-D-glucuronopyranosyl]-29-hydroxyglycyrrhetic acid]", "values": [{"measurement": "IC50", "setting": "phospholipase A2 (PLA2)", "value": "> 50", "unit": "µM"}]}, {"smiles": "CC12CCC3(C)C(=CC(=O)C4C5(C)CCC(OC6OC(C(=O)O)C(O)C(O)C6OC6OC(C(=O)O)C(O)C(O)C6O)C(C)(C)C5CCC43C)C1CC(C)(C(=O)O)C(O)C2", "note": "(stereo not drawn) [Compound 2, macedonoside A]", "values": [{"measurement": "IC50", "setting": "phospholipase A2 (PLA2)", "value": "6.9 ± 0.5", "unit": "µM"}, {"measurement": "AST", "setting": "[1]; 30 μM compound", "value": "14.6 ± 3.1", "unit": "U·L^−1"}, {"measurement": "LDH", "setting": "[1]; 30 μM compound", "value": "231.0 ± 18.3 ^c U·L^−1"}, {"measurement": "AST", "setting": "[1]; 60 μM compound", "value": "13.1 ± 2.1 ^c U·L^−1"}, {"measurement": "LDH", "setting": "[1]; 60 μM compound", "value": "213.7 ± 19.6 ^d U·L^−1"}, {"measurement": "AST", "setting": "[1]; 120 μM compound", "value": "11.2 ± 1.9 ^d U·L^−1"}, {"measurement": "LDH", "setting": "[1]; 120 μM compound", "value": "215.9 ± 8.2 ^d U·L^−1"}, {"measurement": "hepatoprotective activity (result in words)", "setting": "[1]", "value": "notably lowered AST; also recorded: significant hepatoprotective activities"}]}, {"smiles": "CC1(C(=O)O)CCC2(C)CCC3(C)C(=CC(=O)C4C5(C)CCC(OC6OC(C(=O)O)C(O)C(O)C6OC6OC(C(=O)O)C(O)C(O)C6O)C(C)(CO)C5CCC43C)C2C1", "note": "[Compound 3, 3β-O-[β-D-glucuronpyranosyl-(1→2)-β-D-glucuron-pyranosyl]-24-hydroxy-18α-glycyrrhetic acid]", "values": [{"measurement": "IC50", "setting": "phospholipase A2 (PLA2)", "value": "3.6 ± 0.3", "unit": "µM"}, {"measurement": "AST", "setting": "[1]; 30 μM compound", "value": "13.3 ± 2.9 ^c U·L^−1"}, {"measurement": "LDH", "setting": "[1]; 30 μM compound", "value": "224.6 ± 21.4 ^c U·L^−1"}, {"measurement": "AST", "setting": "[1]; 60 μM compound", "value": "12.9 ± 3.2 ^d U·L^−1"}, {"measurement": "LDH", "setting": "[1]; 60 μM compound", "value": "208.6 ± 16.0 ^d U·L^−1"}, {"measurement": "AST", "setting": "[1]; 120 μM compound", "value": "10.8 ± 2.8 ^d U·L^−1"}, {"measurement": "LDH", "setting": "[1]; 120 μM compound", "value": "200.7 ± 15.1 ^d U·L^−1"}, {"measurement": "hepatoprotective activity (result in words)", "setting": "[1]", "value": "notably lowered AST; also recorded: higher activity than compound 4; also recorded: significant hepatoprotective activities"}]}, {"smiles": "CC1(C(=O)O)CCC2(C)CCC3(C)C(=CC(=O)C4C5(C)CCC(OC6OC(C(=O)O)C(O)C(O)C6OC6OC(C(=O)O)C(O)C(O)C6O)C(C)(CO)C5CCC43C)C2C1", "note": "(stereo not drawn) [Compound 4, licorice-saponin G2]", "values": [{"measurement": "IC50", "setting": "phospholipase A2 (PLA2)", "value": "16.9 ± 0.3", "unit": "µM"}, {"measurement": "AST", "setting": "[1]; 30 μM compound", "value": "14.8 ± 2.9", "unit": "U·L^−1"}, {"measurement": "LDH", "setting": "[1]; 30 μM compound", "value": "237.2 ± 16.4", "unit": "U·L^−1"}, {"measurement": "AST", "setting": "[1]; 60 μM compound", "value": "13.7 ± 2.6 ^c U·L^−1"}, {"measurement": "LDH", "setting": "[1]; 60 μM compound", "value": "232.7 ± 25.7", "unit": "U·L^−1"}, {"measurement": "AST", "setting": "[1]; 120 μM compound", "value": "12.6 ± 2.8 ^c U·L^−1"}, {"measurement": "LDH", "setting": "[1]; 120 μM compound", "value": "224.9 ± 25.2 ^c U·L^−1"}, {"measurement": "hepatoprotective activity (result in words)", "setting": "[1]", "value": "notably lowered AST; also recorded: significant hepatoprotective activities"}]}, {"smiles": "CC12CC(OC1=O)C1(C)CCC3(C)C(=CC(=O)C4C5(C)CCC(OC6OC(C(=O)O)C(O)C(O)C6OC6OC(C(=O)O)C(O)C(O)C6O)C(C)(C)C5CCC43C)C1C2", "note": "(stereo not drawn) [Compound 5, licorice-saponin E2]", "values": [{"measurement": "IC50", "setting": "phospholipase A2 (PLA2)", "value": "> 50", "unit": "µM"}, {"measurement": "hepatoprotective activity (result in words)", "setting": "[1]", "value": "significantly weaker hepatoprotective activities than the compound 2 and 11"}]}, {"smiles": "CC(=O)OC1CC(C)(C(=O)O)CC2C3=CC(=O)C4C5(C)CCC(OC6OC(C(=O)O)C(O)C(O)C6OC6OC(C(=O)O)C(O)C(O)C6O)C(C)(C)C5CCC4(C)C3(C)CCC12C", "note": "(stereo not drawn) [Compound 6, 22β-acetoxyglycyrrhizin]", "values": [{"measurement": "IC50", "setting": "phospholipase A2 (PLA2)", "value": "27.1 ± 0.9", "unit": "µM"}, {"measurement": "AST", "setting": "[1]; 30 μM compound", "value": "16.5 ± 2.2", "unit": "U·L^−1"}, {"measurement": "LDH", "setting": "[1]; 30 μM compound", "value": "242.8 ± 15.2", "unit": "U·L^−1"}, {"measurement": "AST", "setting": "[1]; 60 μM compound", "value": "14.6 ± 3.0", "unit": "U·L^−1"}, {"measurement": "LDH", "setting": "[1]; 60 μM compound", "value": "228.7 ± 14.0 ^c U·L^−1"}, {"measurement": "AST", "setting": "[1]; 120 μM compound", "value": "13.2 ± 2.7 ^c U·L^−1"}, {"measurement": "LDH", "setting": "[1]; 120 μM compound", "value": "221.7 ± 19.5 ^d U·L^−1"}, {"measurement": "hepatoprotective activity (result in words)", "setting": "[1]", "value": "notably lowered AST; also recorded: significant hepatoprotective activities"}]}, {"smiles": "CC1(C)C(OC2OC(C(=O)O)C(O)C(O)C2OC2OC(C(=O)O)C(O)C(O)C2O)CCC2(C)C1CCC1(C)C2C(=O)C=C2C3CC4(C(=O)O)CC(OC4=O)C3(C)CCC21C", "note": "(stereo not drawn) [Compound 7, uralsaponin D]", "values": [{"measurement": "IC50", "setting": "phospholipase A2 (PLA2)", "value": "32.2 ± 0.5", "unit": "µM"}, {"measurement": "hepatoprotective activity (result in words)", "setting": "[1]", "value": "significantly weaker hepatoprotective activities than the compound 2 and 11"}]}, {"smiles": "CC12CC(OC1=O)C1(C)CCC3(C)C(=CC(=O)C4C5(C)CCC(OC6OC(C(=O)O)C(O)C(O)C6OC6OC(C(=O)O)C(O)C(O)C6O)C(C)(CO)C5CCC43C)C1C2", "note": "(stereo not drawn) [Compound 8, 24-hydroxylicorice-saponin E2]", "values": [{"measurement": "IC50", "setting": "phospholipase A2 (PLA2)", "value": "> 50", "unit": "µM"}]}, {"smiles": "CC(=O)OC1CC(C)(C=O)CC2C3=CC(=O)C4C5(C)CCC(OC6OC(C(=O)O)C(O)C(O)C6OC6OC(C(=O)O)C(O)C(O)C6O)C(C)(C)C5CCC4(C)C3(C)CCC12C", "note": "(stereo not drawn) [Compound 9, 22β-acetoxyglycyrrhaldehyde]", "values": [{"measurement": "IC50", "setting": "phospholipase A2 (PLA2)", "value": "> 50", "unit": "µM"}]}, {"smiles": "CC1(C(=O)OC2OC(CO)C(O)C(O)C2O)CCC2(C)CCC3(C)C(=CC(=O)C4C5(C)CCC(OC6OC(C(=O)O)C(O)C(O)C6OC6OC(C(=O)O)C(O)C(O)C6O)C(C)(CO)C5CCC43C)C2C1", "note": "(stereo not drawn) [Compound 10, licorice-saponin A3]", "values": [{"measurement": "IC50", "setting": "phospholipase A2 (PLA2)", "value": "> 50", "unit": "µM"}]}, {"smiles": "CC1(C)[C@@H](O[C@H]2O[C@H](C(=O)O)[C@@H](O)[C@H](O)[C@H]2O[C@@H]2O[C@H](C(=O)O)[C@@H](O)[C@H](O)[C@H]2O)CC[C@]2(C)[C@H]3C(=O)C=C4[C@@H]5C[C@@](C)(C(=O)O)CC[C@]5(C)CC[C@@]4(C)[C@]3(C)CC[C@@H]12", "note": "[Compound 11, glycyrrhizin]", "values": [{"measurement": "IC50", "setting": "phospholipase A2 (PLA2)", "value": "9.3 ± 0.8", "unit": "µM"}, {"measurement": "AST", "setting": "[1]; 30 μM compound", "value": "14.1 ± 2.1 ^c U·L^−1"}, {"measurement": "LDH", "setting": "[1]; 30 μM compound", "value": "236.3 ± 9.4 ^c U·L^−1"}, {"measurement": "AST", "setting": "[1]; 60 μM compound", "value": "13.0 ± 2.2 ^c U·L^−1"}, {"measurement": "LDH", "setting": "[1]; 60 μM compound", "value": "219.1 ± 19.3 ^d U·L^−1"}, {"measurement": "AST", "setting": "[1]; 120 μM compound", "value": "11.6 ± 1.8 ^d U·L^−1"}, {"measurement": "LDH", "setting": "[1]; 120 μM compound", "value": "207.8 ± 21.9 ^d U·L^−1"}, {"measurement": "hepatoprotective activity (result in words)", "setting": "[1]", "value": "notably lowered AST; also recorded: stronger activity than 1; also recorded: significant hepatoprotective activities"}]}, {"smiles": "O=C(O)CN(CCN(CC(=O)O)CC(=O)O)CCN(CC(=O)O)CC(=O)O", "note": "[Diethylenetriaminepentaacetic acid, reference compound]", "values": [{"measurement": "IC50", "setting": "phospholipase A2 (PLA2)", "value": "1.8 ± 0.1", "unit": "µM"}]}, {"smiles": "CNCC(O)C(O)C(O)C(O)CO.COc1cc(C2Oc3cc(C4Oc5cc(O)cc(O)c5C(=O)C4O)ccc3OC2CO)ccc1O", "note": "(stereo not drawn) [Silibinin Meglumine, reference compound]", "values": [{"measurement": "AST", "setting": "[1]; 50 μM (positive drug)", "value": "10.3 ± 2.2 ^d U·L^−1"}, {"measurement": "LDH", "setting": "[1]; 50 μM (positive drug)", "value": "219.1 ± 10.9 ^d U·L^−1"}]}]}
